Measured values reported in patent publication US20140155406A1, “4-IMIDAZOPYRIDAZIN-1-YL-BENZAMIDES AND 4-IMIDAZOTRIAZIN-1-YL-BENZAMIDES BTK INHIBITORS” (priority 2011, published 2014).
pEC50: −log10 of the molar value.

Assays:
Type in all cases: biochemical
[1] = target: T1, Src enzyme (Homo sapiens, UniProt P12931); test: Src enzyme activity, IMAP fluorescence polarization assay; conditions: 60 min pre-incubation, 4 μM ATP (Km)
T1 construct: purchased Millipore 14-326
Experimental: Src enzyme activity is measured using the IMAP (immobilized metal ion affinity-based fluorescence polarization) assay as outlined below.
Src enzyme (Millipore catalog#14-326), is diluted to 0.8 U/mL in KR buffer (10 mM Tris-HCl, 10 mM MgCl2, 0.01% Tween-20, 0.05% NaN3, 1 mM DTT, 2 mM MnCl2, pH 7.2).
Serial dilution log 10 from 2 mM to 63.2 nM of test compounds are made in 100% DMSO. The dilutions in DMSO are then diluted 50-fold in KR-buffer of which 5 μl is used in the assay, leading to a final compound concentration range in the assay from 10 μM to 0.316 nM. 5 μL/well of test compound in KR buffer (final DMSO concentration in the assay is 1%) is mixed with 5 μl/well of 0.8 U/mL Src enzyme (final concentration in the assay is 0.2 U/mL). Test compounds and Src enzyme are pre-incubated 60 minutes at room temperature, before adding 5 μL/well of 400 nM Fluorescin labeled substrate peptide (p34cdc2 substrate peptide, e.g. #R7157/#R7172, Molecular Devices) in KR-buffer. Final peptide substrate concentration in assay is 100 nM. The kinase assay is started by adding 5 μL/well of 16 μM ATP in KR-buffer (final ATP concentration is 4 μM ATP, Km ATP in Src IMAP assay). Following incubation for 2 h at room temperature the enzyme reaction is stopped by adding 40 μL/well IMAP Progressive Binding Solution (according to suppliers (Molecular Devices) protocol using 75% 1× buffer A and 25% 1× buffer B with 1:600 Progressive Binding Solution). After 60 min incubation at room temperature in the dark the FP signal is read. Fluorescence at 535 nm is measured using parallel and perpendicular filters to determine differences in rotation due to binding of the phosphorylated substrate peptide to the beads. Values are calculated as percentage of the difference in readout (ΔmPi) of the controls with and without ATP. EC50 values are determined by curve fitting of the experimental results using Activity Base.

[2] = target: T2, Lck enzyme (Homo sapiens, UniProt P06239); test: Lck enzyme activity, IMAP fluorescence polarization assay; conditions: 60 min pre-incubation, 6 μM ATP (Km)
T2 construct: purchased Millipore 14-442
T2 sequence (P06239 whole entry): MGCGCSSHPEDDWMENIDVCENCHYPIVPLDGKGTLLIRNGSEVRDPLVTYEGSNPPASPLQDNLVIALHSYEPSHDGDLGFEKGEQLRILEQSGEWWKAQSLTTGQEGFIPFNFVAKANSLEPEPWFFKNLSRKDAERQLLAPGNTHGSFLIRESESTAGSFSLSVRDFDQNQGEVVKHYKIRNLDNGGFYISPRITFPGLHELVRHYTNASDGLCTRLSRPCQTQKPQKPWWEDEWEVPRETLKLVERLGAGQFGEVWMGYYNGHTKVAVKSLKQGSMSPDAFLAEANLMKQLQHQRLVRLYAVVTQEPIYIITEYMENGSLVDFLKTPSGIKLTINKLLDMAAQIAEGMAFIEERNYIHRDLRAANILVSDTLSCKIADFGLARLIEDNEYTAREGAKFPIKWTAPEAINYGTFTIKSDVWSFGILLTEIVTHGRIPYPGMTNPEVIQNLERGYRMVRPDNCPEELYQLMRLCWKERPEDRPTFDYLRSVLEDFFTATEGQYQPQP
Experimental: Lck enzyme activity is measured using the IMAP (immobilized metal ion affinity-based fluorescence polarization) assay as outlined below.
Lck enzyme (Millipore catalog#14-442), is diluted to 0.4 U/mL in KR buffer (10 mM Tris-HCl, 10 mM MgCl2, 0.01% Tween-20, 0.05% NaN3, 1 mM DTT, 2 mM MnCl2, pH 7.2). Serial dilution log 10 from 2 mM to 63.2 nM of test compounds are made in 100% DMSO. The dilutions in DMSO are then diluted 50-fold in KR-buffer of which 5 μl is used in the assay, leading to a final compound concentration range in the assay from 10 μM to 0.316 nM. 5 μL/well of test compound in KR buffer (final DMSO concentration in the assay is 1%) is mixed with 5 μl/well of 0.4 U/mL Lck enzyme (final concentration in the assay is 0.1 U/mL). Test compounds and Lck enzyme are pre-incubated 60 minutes at room temperature, before adding 5 μL/well of 400 nM Fluorescin labeled substrate peptide (p34cdc2 substrate peptide, e.g. #R7157/#R7172, Molecular Devices) in KR-buffer. Final peptide substrate concentration in assay is 100 nM. The kinase assay is started by adding 5 μL/well of 24 μM ATP in KR-buffer (final ATP concentration is 6 μM ATP, Km ATP in Lck IMAP assay). Following incubation for 2 h at room temperature the enzyme reaction is stopped by adding 40 μL/well IMAP Progressive Binding Solution (according to suppliers (Molecular Devices) protocol using 75% 1× buffer A and 25% 1× buffer B with 1:600 Progressive Binding Solution). After 60 min incubation at room temperature in the dark the FP signal is read. Fluorescence at 535 nm is measured using parallel and perpendicular filters to determine differences in rotation due to binding of the phosphorylated substrate peptide to the beads. Values are calculated as percentage of the difference in readout (ΔmPi) of the controls with and without ATP. EC50 values are determined by curve fitting of the experimental results using Activity Base.

[3] = target: T3, FynT enzyme (Homo sapiens, UniProt P06241); test: FynT enzyme activity, IMAP fluorescence polarization assay; conditions: 60 min pre-incubation, 0.2 μM ATP (Km)
T3 construct: purchased Biomol SE-287
T3 sequence (P06241 1-534 isoform P06241-2): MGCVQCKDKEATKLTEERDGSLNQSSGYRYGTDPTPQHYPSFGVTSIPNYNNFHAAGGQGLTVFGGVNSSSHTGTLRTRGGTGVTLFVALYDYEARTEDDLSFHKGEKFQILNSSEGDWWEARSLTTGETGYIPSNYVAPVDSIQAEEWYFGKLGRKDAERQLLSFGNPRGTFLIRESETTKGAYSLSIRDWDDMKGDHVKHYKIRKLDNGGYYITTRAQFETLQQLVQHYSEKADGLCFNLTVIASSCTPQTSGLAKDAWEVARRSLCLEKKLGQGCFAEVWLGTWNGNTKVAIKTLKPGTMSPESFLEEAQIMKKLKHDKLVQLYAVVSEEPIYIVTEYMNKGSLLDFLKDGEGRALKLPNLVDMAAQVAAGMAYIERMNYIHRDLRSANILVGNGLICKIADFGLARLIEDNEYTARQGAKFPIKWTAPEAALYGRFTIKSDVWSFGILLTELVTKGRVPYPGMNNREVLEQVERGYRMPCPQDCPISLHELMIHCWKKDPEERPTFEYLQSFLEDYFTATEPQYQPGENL
Experimental: FynT enzyme activity is measured using the IMAP (immobilized metal ion affinity-based fluorescence polarization) assay as outlined below.
FynT enzyme (Biomol catalog# SE-287), is diluted to 0.5 μg/mL in KR buffer (10 mM Tris-HCl, 10 mM MgCl2, 0.01% Tween-20, 0.05% NaN3, 1 mM DTT, 2 mM MnCl2, pH 7.2). Serial dilution log 10 from 2 mM to 63.2 nM of test compounds are made in 100% DMSO. The dilutions in DMSO are then diluted 50-fold in KR-buffer of which 5 μl is used in the assay, leading to a final compound concentration range in the assay from 10 μM to 0.316 nM. 5 μL/well of test compound in KR buffer (final DMSO concentration in the assay is 1%) is mixed with 5 μl/well of 0.5 μg/mL FynT enzyme (final concentration in the assay is 125 ng/mL). Test compounds and FynT enzyme are pre-incubated 60 minutes at room temperature, before adding 5 μL/well of 400 nM Fluorescin labeled substrate peptide (p34cdc2 substrate peptide, e.g. #R7157/#R7172, Molecular Devices) in KR-buffer. Final peptide substrate concentration in assay is 100 nM. The kinase assay is started by adding 5 μL/well of 0.8 μM ATP in KR-buffer (final ATP concentration is 0.2 μM ATP, Km ATP in FynT IMAP assay). Following incubation for 2 h at room temperature the enzyme reaction is stopped by adding 40 μL/well IMAP Progressive Binding Solution (according to suppliers (Molecular Devices) protocol using 75% 1× buffer A and 25% 1× buffer B with 1:600 Progressive Binding Solution). After 60 min incubation at room temperature in the dark the FP signal is read. Fluorescence at 535 nm is measured using parallel and perpendicular filters to determine differences in rotation due to binding of the phosphorylated substrate peptide to the beads. Values are calculated as percentage of the difference in readout (ΔmPi) of the controls with and without ATP. EC50 values are determined by curve fitting of the experimental results using Activity Base.

[4] = target: T4, Lyn enzyme (Homo sapiens, UniProt P07948); test: Lyn enzyme activity, IMAP fluorescence polarization assay; conditions: 60 min pre-incubation, 2 μM ATP (Km)
T4 construct: purchased Millipore 14-510
T4 sequence (P07948 whole entry): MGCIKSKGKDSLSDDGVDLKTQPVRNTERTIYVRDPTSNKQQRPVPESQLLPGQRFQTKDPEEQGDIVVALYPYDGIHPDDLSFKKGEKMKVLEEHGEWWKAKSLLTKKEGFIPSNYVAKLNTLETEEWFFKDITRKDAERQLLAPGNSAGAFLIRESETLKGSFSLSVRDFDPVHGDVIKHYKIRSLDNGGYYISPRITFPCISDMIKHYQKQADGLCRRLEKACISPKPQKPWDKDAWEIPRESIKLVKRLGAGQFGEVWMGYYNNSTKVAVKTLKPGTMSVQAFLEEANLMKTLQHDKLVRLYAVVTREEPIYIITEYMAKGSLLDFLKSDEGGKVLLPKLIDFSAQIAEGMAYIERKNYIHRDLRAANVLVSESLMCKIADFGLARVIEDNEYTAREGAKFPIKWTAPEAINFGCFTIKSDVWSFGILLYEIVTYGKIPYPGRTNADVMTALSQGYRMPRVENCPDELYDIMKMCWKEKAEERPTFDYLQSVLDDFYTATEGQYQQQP
Experimental: Lyn enzyme activity is measured using the IMAP (immobilized metal ion affinity-based fluorescence polarization) assay as outlined below.
Lyn enzyme (Millipore catalog#14-510), is diluted to 250 mU/mL in KR buffer (10 mM Tris-HCl, 10 mM MgCl2, 0.01% Tween-20, 0.05% NaN3, 1 mM DTT, 2 mM MnCl2, pH 7.2). Serial dilution log 10 from 2 mM to 63.2 nM of test compounds are made in 100% DMSO. The dilutions in DMSO are then diluted 50-fold in KR-buffer of which 5 μl is used in the assay, leading to a final compound concentration range in the assay from 10 μM to 0.316 nM. 5 μL/well of test compound in KR buffer (final DMSO concentration in the assay is 1%) is mixed with 5 μl/well of 250 mU/mL Lyn enzyme (final concentration in the assay is 62.5 mU/mL). Test compounds and Lyn enzyme are pre-incubated 60 minutes at room temperature, before adding 5 μL/well of 400 nM Fluorescin labeled substrate peptide (Blk/Lyntide substrate, e.g. #R7188/#R7233, Molecular Devices) in KR-buffer. Final peptide substrate concentration in assay is 100 nM. The kinase assay is started by adding 5 μL/well of 8 μM ATP in KR-buffer (final ATP concentration is 2 μM ATP, Km ATP in Lyn IMAP assay). Following incubation for 2 h at room temperature the enzyme reaction is stopped by adding 40 μL/well IMAP Progressive Binding Solution (according to suppliers (Molecular Devices) protocol using 75% 1× buffer A and 25% 1× buffer B with 1:600 Progressive Binding Solution). After 60 min incubation at room temperature in the dark the FP signal is read. Fluorescence at 535 nm is measured using parallel and perpendicular filters to determine differences in rotation due to binding of the phosphorylated substrate peptide to the beads. Values are calculated as percentage of the difference in readout (ΔmPi) of the controls with and without ATP. EC50 values are determined by curve fitting of the experimental results using Activity Base.

T1 sequence (P12931 whole entry): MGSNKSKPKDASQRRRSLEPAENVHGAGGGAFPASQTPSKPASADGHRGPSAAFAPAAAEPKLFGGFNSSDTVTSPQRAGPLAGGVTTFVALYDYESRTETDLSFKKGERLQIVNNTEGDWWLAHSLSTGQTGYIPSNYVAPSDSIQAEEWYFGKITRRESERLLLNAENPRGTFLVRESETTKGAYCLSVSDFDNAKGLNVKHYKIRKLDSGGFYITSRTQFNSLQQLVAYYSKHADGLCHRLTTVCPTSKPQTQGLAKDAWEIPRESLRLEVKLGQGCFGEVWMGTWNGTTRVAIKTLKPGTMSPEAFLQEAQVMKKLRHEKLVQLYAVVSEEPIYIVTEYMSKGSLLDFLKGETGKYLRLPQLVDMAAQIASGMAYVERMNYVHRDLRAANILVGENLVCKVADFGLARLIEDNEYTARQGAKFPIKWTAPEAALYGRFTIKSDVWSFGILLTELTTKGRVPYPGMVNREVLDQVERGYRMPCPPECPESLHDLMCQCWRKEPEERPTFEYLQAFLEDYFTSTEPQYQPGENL

pEC50 [1]	pEC50 [2]	pEC50 [3]	pEC50 [4]	Structure (SMILES)
≤ 6.00	≤ 6.00	≤ 6.00	≤ 6.00	Cc1nccn2c([C@@H]3CCCN3C(=O)/C=C/CN(C)C)nc(-c3ccc(C(=O)Nc4ccccn4)cc3)c12 [Example 31, (S,E)-4-(3-(1-(4-(dimethylamino)but-2-enoyl)pyrrolidin-2-yl)-8-methylimidazo[1,5-a]pyrazin-1-yl)-N-(pyridin-2-yl)benzamide]
≤ 6.00	≤ 6.00	≤ 6.00	≤ 6.00	CC#CC(=O)N1CCC[C@H]1c1nc(-c2ccc(C(=O)Nc3cc(C#N)ccn3)cc2)c2c(C)nccn12 [Example 32, (S)-4-(3-(1-but-2-ynoylpyrrolidin-2-yl)-8-methylimidazo[1,5-a]pyrazin-1-yl)-N-(4-cyanopyridin-2-yl)benzamide]
≤ 6.00	≤ 6.00	≤ 6.00	≤ 6.00	CC#CC(=O)N1CCC[C@H]1c1nc(-c2ccc(C(=O)Nc3cc(CCC)ccn3)cc2)c2c(C)nccn12 [Example 33, (S)-4-(3-(1-but-2-ynoylpyrrolidin-2-yl)-8-methylimidazo[1,5-a]pyrazin-1-yl)-N-(4-propylpyridin-2-yl)benzamide]
≤ 6.00	≤ 6.00	≤ 6.00	≤ 6.00	CCCc1ccnc(NC(=O)c2ccc(-c3nc([C@@H]4CCCCN4C(=O)/C=C/COC)n4ccnc(C)c34)cc2)c1 [Example 34, (S,E)-4-(3-(1-(4-methoxybut-2-enoyl)piperidin-2-yl)-8-methylimidazo[1,5-a]pyrazin-1-yl)-N-(4-propylpyridin-2-yl)benzamide]
≤ 6.00	≤ 6.00	≤ 6.00	≤ 6.00	CCCc1ccnc(NC(=O)c2ccc(-c3nc([C@H](C)N(C)C(=O)/C=C/COC)n4ccnc(C)c34)cc2)c1 [Example 39, (S,E)-4-(3-(1-(4-methoxy-N-methylbut-2-enamido)ethyl)-8-methylimidazo[1,5-a]pyrazin-1-yl)-N-(4-propylpyridin-2-yl)benzamide]
